Test results from publication PMC7101356, “Cross-site and cross-platform variability of automated patch clamp assessments of drug effects on human cardiac currents in recombinant cells” (Scientific Reports, 2020).
Where two headings read alike, the source gives them in different places.

Legend:
peak hNav1.5 = molecular target: T1, peak hNav1.5 (Homo sapiens, UniProt Q14524); assay: Automated patch clamp, peak hNav1.5 current block; assay type: cell-based
T1 construct: expressed in transfected cells; host or cells: HEK293 or CHO, depending on site
Experimental: Peak current was measured during the depolarizing step to −15 mV. Leak current was measured after applying a saturating concentration of a blocker such as lidocaine (2 mM) at the end of each experiment to completely block hNav1.5 current.
Concentration-response relationships for each test article were independently investigated, i.e., each cell received only one test article, typically evaluating multiple concentrations in a cumulative fashion (lowest to highest concentrations). However, some platforms tested only one concentration per well. Each concentration response was based on a minimum of four concentrations, with a minimum of three wells used for each concentration. In cases of high variability, more cells per concentration were recorded. Prior to drug addition, cells received an addition of vehicle to measure non-test article-related effects such as addition artifacts. At the end of the experiment, a supramaximal concentration of a known inhibitory reference compound was applied to assess leak current and appropriate responsiveness of the test system.
The steady state current at each concentration was used to determine the concentration-response relationships. Mean concentration-response data were fitted to a standard sigmoidal four-parameter logistic equation (GraphPad Prism 7; GraphPad Inc., La Jolla, CA) of the form: Y=Bottom+(Top−Bottom)/(1+10^∧(LogIC50−X)∗HillSlope) where Y is the current inhibition (in % of pre-drug control), X is the logarithm of drug concentration, and IC50 is the drug concentration producing half-maximal current inhibition. Curve fitting was performed using the following constraints: Top = 100%, Bottom = 0%, Hill Slope <2. No curve fitting was performed in cases with an obvious lack of a concentration-dependent current inhibition and/or small effect size (approximately ≤20%).

late hNav1.5 = molecular target: T2, late hNav1.5 (Homo sapiens, UniProt Q14524); assay: Automated patch clamp, late hNav1.5 current block (ATX-II activated); assay type: cell-based; settings: for IC50: read-out: log IC50, late hNav1.5 inhibition (converted)
T2 construct: expressed in transfected cells; host or cells: HEK293 or CHO, depending on site

[1] = based on CiPA evaluations; cited from earlier work
hCav1.2 = hCav1.2 (Homo sapiens, UniProt Q13936); assay: Automated patch clamp, hCav1.2 current block; settings: log IC50, half-maximal inhibitory concentration
[2] = site_platform s06_p4, 1.00E-05 mol/L
[3] = site_platform s06_p4, 3.00E-07 mol/L
[4] = site_platform s07_p6, 1.00E-05 mol/L
[5] = site_platform s07_p6, 3.00E-07 mol/L
[6] = site_platform s13_p2, 1.00E-05 mol/L
[7] = site_platform s13_p2, 3.00E-07 mol/L
[8] = site_platform s14_p1, 1.00E-05 mol/L
[9] = site_platform s14_p1, 3.00E-07 mol/L

T2 sequence (Q14524 whole entry): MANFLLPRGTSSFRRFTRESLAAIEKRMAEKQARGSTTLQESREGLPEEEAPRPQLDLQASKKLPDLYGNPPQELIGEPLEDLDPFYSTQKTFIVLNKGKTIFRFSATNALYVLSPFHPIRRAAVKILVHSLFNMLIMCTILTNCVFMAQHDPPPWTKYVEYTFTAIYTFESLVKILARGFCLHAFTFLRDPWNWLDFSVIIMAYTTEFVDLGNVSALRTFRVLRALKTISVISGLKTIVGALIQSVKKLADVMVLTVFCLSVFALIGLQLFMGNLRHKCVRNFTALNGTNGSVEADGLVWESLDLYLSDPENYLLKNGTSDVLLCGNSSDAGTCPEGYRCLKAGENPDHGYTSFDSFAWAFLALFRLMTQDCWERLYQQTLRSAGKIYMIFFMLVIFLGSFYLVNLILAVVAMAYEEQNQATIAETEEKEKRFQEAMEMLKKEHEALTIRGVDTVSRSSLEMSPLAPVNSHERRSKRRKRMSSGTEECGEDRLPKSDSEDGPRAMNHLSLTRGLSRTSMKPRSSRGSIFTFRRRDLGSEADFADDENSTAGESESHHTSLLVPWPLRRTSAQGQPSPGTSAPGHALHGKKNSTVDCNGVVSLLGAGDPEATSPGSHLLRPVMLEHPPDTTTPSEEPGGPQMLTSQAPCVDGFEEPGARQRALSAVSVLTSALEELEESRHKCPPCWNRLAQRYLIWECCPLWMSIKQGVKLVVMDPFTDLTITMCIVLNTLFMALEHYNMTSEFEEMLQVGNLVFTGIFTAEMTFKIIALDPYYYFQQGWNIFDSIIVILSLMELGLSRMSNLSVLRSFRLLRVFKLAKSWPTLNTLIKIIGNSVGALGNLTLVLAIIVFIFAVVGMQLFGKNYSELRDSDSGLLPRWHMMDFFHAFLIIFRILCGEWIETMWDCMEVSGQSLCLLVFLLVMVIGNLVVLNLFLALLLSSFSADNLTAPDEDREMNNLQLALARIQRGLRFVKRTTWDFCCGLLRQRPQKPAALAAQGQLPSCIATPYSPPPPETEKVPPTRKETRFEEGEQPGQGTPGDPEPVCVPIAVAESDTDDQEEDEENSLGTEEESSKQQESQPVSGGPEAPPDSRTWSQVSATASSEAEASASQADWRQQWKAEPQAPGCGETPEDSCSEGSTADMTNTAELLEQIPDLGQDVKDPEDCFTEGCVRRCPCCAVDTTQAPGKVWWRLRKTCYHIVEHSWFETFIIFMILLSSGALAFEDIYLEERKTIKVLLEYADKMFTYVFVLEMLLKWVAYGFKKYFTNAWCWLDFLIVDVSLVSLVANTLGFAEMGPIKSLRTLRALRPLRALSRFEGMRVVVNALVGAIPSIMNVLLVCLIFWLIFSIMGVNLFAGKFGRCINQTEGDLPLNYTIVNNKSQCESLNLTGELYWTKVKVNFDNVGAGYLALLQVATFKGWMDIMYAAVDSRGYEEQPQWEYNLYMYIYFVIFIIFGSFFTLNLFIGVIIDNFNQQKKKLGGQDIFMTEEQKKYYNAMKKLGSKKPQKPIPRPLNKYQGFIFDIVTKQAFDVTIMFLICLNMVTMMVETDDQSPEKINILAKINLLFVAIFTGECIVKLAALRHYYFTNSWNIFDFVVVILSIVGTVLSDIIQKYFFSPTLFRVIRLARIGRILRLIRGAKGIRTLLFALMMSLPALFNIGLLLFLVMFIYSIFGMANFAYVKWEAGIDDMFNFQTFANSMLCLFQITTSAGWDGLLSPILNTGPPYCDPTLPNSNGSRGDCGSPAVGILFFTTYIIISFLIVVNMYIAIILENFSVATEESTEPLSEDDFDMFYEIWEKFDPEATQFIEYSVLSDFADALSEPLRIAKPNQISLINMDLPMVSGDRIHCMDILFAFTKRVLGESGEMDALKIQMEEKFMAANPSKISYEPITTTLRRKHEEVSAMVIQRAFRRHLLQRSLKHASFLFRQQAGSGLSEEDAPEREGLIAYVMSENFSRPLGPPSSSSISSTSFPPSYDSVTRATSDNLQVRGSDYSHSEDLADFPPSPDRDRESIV
T1 sequence (Q14524 whole entry): as above

Question: Which “peak hNav1.5 Na+ current inhibition (result in words)” value (peak hNav1.5; no inhibition = no obvious concentration-dependent current block and/or no curve fitting performed, all sites) does the source give for `Cc1nccn1CC1CCc2c(c3ccccc3n2C)C1=O` (stereo not shown) [ond, ondansetron] here?
Answer: The value was “no inhibition”.

Question: And the “log IC50, peak hNav1.5 Na+ current inhibition” value (peak hNav1.5; site_platform s01_p1)?
Answer: The value was “no inh”.

Question: What about the “Peak hNav1.5 Na+ current inhibition, Mean” value (peak hNav1.5; site_platform s01_p1, 1.00E-05 mol/L) of the same molecule?
Answer: Its value is 56.4%.

Question: What about the “Peak hNav1.5 Na+ current inhibition, Mean” value (peak hNav1.5; site_platform s01_p1, 3.00E-07 mol/L) of the same molecule?
Answer: The value was 31.6%.

Question: And the “log IC50, peak hNav1.5 Na+ current inhibition” value (peak hNav1.5; site_platform s02_p2)?
Answer: Its value is “no inh”.

Question: What about the “Peak hNav1.5 Na+ current inhibition, Mean” value (peak hNav1.5; site_platform s02_p2, 1.00E-05 mol/L) of the same molecule?
Answer: The value was 9.4%.

Question: And the “Peak hNav1.5 Na+ current inhibition, Mean” value (peak hNav1.5; site_platform s02_p2, 3.00E-07 mol/L)?
Answer: The value was 1.4%.

Question: What about the “log IC50, peak hNav1.5 Na+ current inhibition” value (peak hNav1.5; site_platform s04_p3) of the same molecule?
Answer: Its value is “no inh”.

Question: And the “Peak hNav1.5 Na+ current inhibition, Mean” value (peak hNav1.5; site_platform s04_p3, 1.00E-05 mol/L)?
Answer: The value was 19.5%.

Question: And the “Peak hNav1.5 Na+ current inhibition, Mean” value (peak hNav1.5; site_platform s04_p3, 3.00E-07 mol/L)?
Answer: Its value is 4.4%.

Question: And the “log IC50, peak hNav1.5 Na+ current inhibition” value (peak hNav1.5; site_platform s06_p4)?
Answer: The value was “no inh”.

Question: What about the “Peak hNav1.5 Na+ current inhibition, Mean” value (peak hNav1.5; [2]) of the same molecule?
Answer: The value was 19.0%.

Question: What about the “Peak hNav1.5 Na+ current inhibition, Mean” value (peak hNav1.5; [3]) of the same molecule?
Answer: The value was 0.4%.

Question: What about the “log IC50, peak hNav1.5 Na+ current inhibition” value (peak hNav1.5; site_platform s07_p6) of the same molecule?
Answer: Its value is “no inh”.

Question: And the “Peak hNav1.5 Na+ current inhibition, Mean” value (peak hNav1.5; [4])?
Answer: The value was 17.1%.

Question: What about the “Peak hNav1.5 Na+ current inhibition, Mean” value (peak hNav1.5; [5]) of the same molecule?
Answer: Its value is 1.7%.

Question: And the “log IC50, peak hNav1.5 inhibition” value (peak hNav1.5; site_platform s10_p3)?
Answer: The value was “no inh”.

Question: What about the “Peak hNav1.5 Na+ current inhibition, Mean” value (peak hNav1.5; site_platform s10_p3, 1.00E-05 mol/L) of the same molecule?
Answer: The value was 20.6%.

Question: And the “Peak hNav1.5 Na+ current inhibition, Mean” value (peak hNav1.5; site_platform s10_p3, 3.00E-07 mol/L)?
Answer: Its value is 0.1%.

Question: What about the “log IC50, peak hNav1.5 inhibition” value (peak hNav1.5; site_platform s11_p1) of the same molecule?
Answer: The value was “no inh”.

Question: And the “Peak hNav1.5 Na+ current inhibition, Mean” value (peak hNav1.5; site_platform s11_p1, 1.00E-05 mol/L)?
Answer: Its value is 15.2%.

Question: And the “Peak hNav1.5 Na+ current inhibition, Mean” value (peak hNav1.5; site_platform s11_p1, 3.00E-07 mol/L)?
Answer: Its value is 6.1%.

Question: And the “log IC50, peak hNav1.5 inhibition” value (peak hNav1.5; site_platform s12_p2)?
Answer: Its value is “no inh”.

Question: And the “Peak hNav1.5 Na+ current inhibition, Mean” value (peak hNav1.5; site_platform s12_p2, 1.00E-05 mol/L)?
Answer: The value was 12.2%.

Question: And the “Peak hNav1.5 Na+ current inhibition, Mean” value (peak hNav1.5; site_platform s12_p2, 3.00E-07 mol/L)?
Answer: The value was 3.0%.

Question: And the “log IC50, peak hNav1.5 inhibition” value (peak hNav1.5; site_platform s13_p2)?
Answer: Its value is “no inh”.

Question: And the “Peak hNav1.5 Na+ current inhibition, Mean” value (peak hNav1.5; [6])?
Answer: The value was 7.0%.

Question: What about the “Peak hNav1.5 Na+ current inhibition, Mean” value (peak hNav1.5; [7]) of the same molecule?
Answer: The value was -3.4%.

Question: And the “log IC50, peak hNav1.5 inhibition” value (peak hNav1.5; site_platform s14_p1)?
Answer: Its value is “no inh”.

Question: What about the “Peak hNav1.5 Na+ current inhibition, Mean” value (peak hNav1.5; [8]) of the same molecule?
Answer: Its value is 21.3%.

Question: What about the “Peak hNav1.5 Na+ current inhibition, Mean” value (peak hNav1.5; [9]) of the same molecule?
Answer: The value was 3.9%.

Question: And the “log IC50, peak hNav1.5 inhibition” value (peak hNav1.5; site_platform s15_p1)?
Answer: The value was “no inh”.

Question: And the “Peak hNav1.5 Na+ current inhibition, Mean” value (peak hNav1.5; site_platform s15_p1, 1.00E-05 mol/L)?
Answer: The value was 43.9%.

Question: And the “Peak hNav1.5 Na+ current inhibition, Mean” value (peak hNav1.5; site_platform s15_p1, 3.00E-07 mol/L)?
Answer: Its value is 11.8%.

Question: What about the “log IC50, peak hNav1.5 inhibition” value (peak hNav1.5; site_platform s16_p3) of the same molecule?
Answer: Its value is “no inh”.

Question: What about the “Peak hNav1.5 Na+ current inhibition, Mean” value (peak hNav1.5; site_platform s16_p3, 1.00E-05 mol/L) of the same molecule?
Answer: The value was 14.4%.

Question: What about the “Peak hNav1.5 Na+ current inhibition, Mean” value (peak hNav1.5; site_platform s16_p3, 3.00E-07 mol/L) of the same molecule?
Answer: Its value is 2.8%.

Question: What about the “log IC50, peak hNav1.5 inhibition” value (peak hNav1.5; site_platform s17_p1) of the same molecule?
Answer: Its value is “no inh”.

Question: And the “Peak hNav1.5 Na+ current inhibition, Mean” value (peak hNav1.5; site_platform s17_p1, 1.00E-05 mol/L)?
Answer: The value was 33.4%.

Question: And the “Peak hNav1.5 Na+ current inhibition, Mean” value (peak hNav1.5; site_platform s17_p1, 3.00E-07 mol/L)?
Answer: Its value is -17.0%.

Question: What about the “log IC50, peak hNav1.5 inhibition” value (peak hNav1.5; site_platform s18_p1) of the same molecule?
Answer: The value was “no inh”.

Question: What about the “Peak hNav1.5 Na+ current inhibition, Mean” value (peak hNav1.5; site_platform s18_p1, 1.00E-05 mol/L) of the same molecule?
Answer: The value was 29.7%.

Question: And the “Peak hNav1.5 Na+ current inhibition, Mean” value (peak hNav1.5; site_platform s18_p1, 3.00E-07 mol/L)?
Answer: The value was 27.5%.

Question: What about the “log IC50, peak hNav1.5 inhibition” value (peak hNav1.5; site_platform s19_p3) of the same molecule?
Answer: Its value is “no inh”.

Question: What about the “Peak hNav1.5 Na+ current inhibition, Mean” value (peak hNav1.5; site_platform s19_p3, 1.00E-05 mol/L) of the same molecule?
Answer: The value was 24.0%.

Question: What about the “Peak hNav1.5 Na+ current inhibition, Mean” value (peak hNav1.5; site_platform s19_p3, 3.00E-07 mol/L) of the same molecule?
Answer: Its value is 3.5%.

Question: And the “nH, Hill slope, late hNav1.5 inhibition” value (late hNav1.5; site_platform s06_p4)?
Answer: The value was 1.28.

Question: And the “Late hNav1.5 Na+ current inhibition, Mean” value (late hNav1.5; [2])?
Answer: Its value is 61.7%.

Question: And the “Late hNav1.5 Na+ current inhibition, Mean” value (late hNav1.5; [3])?
Answer: The value was 0.5%.

Question: And the IC50 (late hNav1.5; site_platform s06_p4)?
Answer: Its IC50 is 6.92 µM.

Question: And the “nH, Hill slope, late hNav1.5 inhibition” value (late hNav1.5; site_platform s07_p6)?
Answer: The value was 1.57.

Question: What about the “Late hNav1.5 Na+ current inhibition, Mean” value (late hNav1.5; [4]) of the same molecule?
Answer: Its value is 47.6%.

Question: And the “Late hNav1.5 Na+ current inhibition, Mean” value (late hNav1.5; [5])?
Answer: Its value is -14.8%.

Question: And the IC50 (late hNav1.5; site_platform s07_p6)?
Answer: The IC50 was 10.2 µM.

Question: And the “log IC50, late hNav1.5 inhibition” value (late hNav1.5; site_platform s13_p2)?
Answer: The value was “no inh”.

Question: And the “Late hNav1.5 Na+ current inhibition, Mean” value (late hNav1.5; [6])?
Answer: Its value is 20.9%.

Question: And the “Late hNav1.5 Na+ current inhibition, Mean” value (late hNav1.5; [7])?
Answer: Its value is 9.2%.

Question: And the “log IC50, late hNav1.5 inhibition” value (late hNav1.5; site_platform s14_p1)?
Answer: Its value is “no inh”.

Question: What about the “Late hNav1.5 Na+ current inhibition, Mean” value (late hNav1.5; [8]) of the same molecule?
Answer: Its value is 40.9%.

Question: What about the “Late hNav1.5 Na+ current inhibition, Mean” value (late hNav1.5; [9]) of the same molecule?
Answer: Its value is 20.2%.

Question: What about the “TdP Risk Category” value [1] of the same molecule?
Answer: Its value is “Intermediate”.

Question: What about the IC50 (hCav1.2; site s04_p3) of the same molecule?
Answer: Its IC50 is 155 µM.

Question: What about the IC50 (hCav1.2; site s14_p1) of the same molecule?
Answer: The IC50 was 28.8 µM.

Question: And the IC50 (hCav1.2; site s16_p3)?
Answer: Its IC50 is 6.61 µM.
